Source: US20220000841A1, “INHIBITORS OF METALLO-BETA-LACTAMASES” (CENTRE NATIONAL DE LA RECHERCHE SCIENTIFIQUE, priority 2018, published 2022)

Experiments:
[1] = tested on: K. pneumoniae S1-002 (blaVIM-4+); assay: Broth microdilution MIC of meropenem in absence and presence of MBL inhibitor, S1-002; format: cell-based; conditions: MBL inhibitor fixed at 32 μg/ml, Mueller-Hinton broth, duplicate
Procedure: (§1) This method was performed in agreement with the CLSI recommendations (document M07-A10, 2015, “Methods for Dilution Antimicrobial Susceptibility Tests for Bacteria That Grow Aerobically”).
(§2) MIC values of meropenem (MEM) were determined in duplicate in Mueller-Hinton broth as recommended by CLSI (document M07-A10, 2015), in absence and presence of a fixed concentration of MBL inhibitor (32 μg/ml).

[2] = biological target: NDM-1 (Klebsiella pneumoniae, UniProt C7C422); assay: Enzymatic assay for determination of inhibition constants, reporter substrate method, purified NDM-1; format: biochemical; conditions: for Ki: isolated MBL, competitive inhibition model; for % inhibition NDM-1: at 100 μM (maximal tested concentration);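 on all read-outs here: purified enzyme activity followed as absorbance change from reporter substrate hydrolysis on a UV-Vis spectrophotometer or plate reader, 50 mM HEPES pH 7.5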
Procedure: (§3) The reaction rate was measured as the variation of absorbance observed upon substrate hydrolysis in a UV-Vis spectrophotometer or microplate reader at a wavelength of 300 nm (imipenem, meropenem), 260 nm (cefotaxime) or 482 nm (nitrocefin) in 50 mM HEPES buffer (pH 7.5) and in the presence of a purified MBL enzyme (such as VIM-1, VIM-2, VIM-4, NDM-1 and IMP-1, at a final concentration ranging 1-70 nM).
(§4) The inhibition constants (Ki) were determined on the basis of a model of competitive inhibition by analyzing the dependence of the ratio v0/vi (v0, hydrolysis velocity in the absence of inhibitor; vi, hydrolysis velocity in the presence of inhibitor) as a function of [I] as already described [Docquier J. D., Lamotte-Brasseur J., Galleni M., Amicosante G., Frère J. M., Rossolini G. M. (2003) J. Antimicrob. […] The slope of the plot of v0/vi vs [I], which corresponds to Km^S/(Km^S+[S])Ki (where Km^S is the Km value of the reporter substrate and [S] its concentration in the reaction mixture) and allowed the calculation of the Ki value. Alternatively, a Dixon plot analysis was carried out, by measuring the initial hydrolysis rates in the presence of variable concentrations of inhibitor and substrate.

[3] = tested on: K. pneumoniae SI-001 (blaVIM-1+); assay: Broth microdilution MIC of meropenem in absence and presence of MBL inhibitor, SI-001; format: cell-based; conditions: MBL inhibitor fixed at 32 μg/ml, Mueller-Hinton broth, duplicate
Procedure: as §1, §2

[4] = biological target: IMP-1 (Serratia marcescens, UniProt P52699); assay: Enzymatic assay for determination of inhibition constants, reporter substrate method, purified IMP-1; format: biochemical; conditions: for Ki: isolated MBL, competitive inhibition model; for % inhibition IMP-1: at 100 μM (maximal tested concentration);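 on all read-outs here: purified IMP-1 (1-70 nM) hydrolysing a reporter substrate, initial rates followed as absorbance change at 260, 300 or 482 nm in 50 mM HEPES pH 7.5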
Procedure: as §3, §4

[5] = biological target: VIM-2 (Escherichia coli, UniProt Q5U7L7); assay: Enzymatic assay for determination of inhibition constants, reporter substrate method, purified VIM-2; format: biochemical; conditions: for Ki: isolated MBL, competitive inhibition model, read-out: Ki VIM-2; for % inhibition VIM-2: at 100 μM (maximal tested concentration);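 on all read-outs here: purified VIM-2 hydrolysing a reporter substrate (imipenem, meropenem, cefotaxime or nitrocefin), reaction rate read as absorbance change, HEPES 50 mM at pH 7.5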
Procedure: as §3, §4

[6] = biological target: VIM-1 (Pseudomonas aeruginosa, UniProt A0A0F7KYQ8); assay: Enzymatic assay for determination of inhibition constants, reporter substrate method, purified VIM-1; format: biochemical; conditions: for Ki: isolated MBL, competitive inhibition model;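 on all read-outs here: initial hydrolysis rates of a reporter β-lactam (imipenem, meropenem, cefotaxime or nitrocefin) followed by absorbance change, purified enzyme at 1–70 nM in 50 mM HEPES pH 7.5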
[7] = biological target: VIM-4 (Pseudomonas aeruginosa, UniProt Q8KRJ3); assay: Enzymatic assay for determination of inhibition constants, reporter substrate method, purified VIM-4; format: biochemical; conditions: at 100 μM (maximal tested concentration);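 further: purified VIM-4 (1-70 nM) in 50 mM HEPES pH 7.5, reporter substrate hydrolysis rate tracked by absorbance change (nitrocefin 482 nm, imipenem or meropenem 300 nm, cefotaxime 260 nm)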
Procedure: as §3, §4

Sequence of NDM-1 (C7C422 29-270, looked up, species assumed): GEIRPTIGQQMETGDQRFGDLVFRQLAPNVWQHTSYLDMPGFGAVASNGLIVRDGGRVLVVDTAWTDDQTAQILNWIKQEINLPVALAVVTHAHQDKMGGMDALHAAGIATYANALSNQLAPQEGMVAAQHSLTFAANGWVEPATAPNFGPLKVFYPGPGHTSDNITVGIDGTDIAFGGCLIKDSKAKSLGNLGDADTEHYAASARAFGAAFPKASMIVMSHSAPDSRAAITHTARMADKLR
Sequence of IMP-1 (P52699 19-246, looked up, species assumed): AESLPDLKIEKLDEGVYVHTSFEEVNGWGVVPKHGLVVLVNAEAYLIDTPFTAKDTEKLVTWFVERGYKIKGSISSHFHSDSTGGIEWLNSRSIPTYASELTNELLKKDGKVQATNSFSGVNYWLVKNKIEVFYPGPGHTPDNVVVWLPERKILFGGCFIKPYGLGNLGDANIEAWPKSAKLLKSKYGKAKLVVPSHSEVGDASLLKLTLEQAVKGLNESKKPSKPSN

SMILES	MIC potentiation of meropenem (x.log2 dilutions), K. pneumoniae S1-002 (blaVIM-4+) [1] [log2 dilutions]	Ki [2] [µM]	MIC potentiation of meropenem (x.log2 dilutions), K. pneumoniae SI-001 (blaVIM-1+) [3] [log2 dilutions]	Ki [4] [µM]	Ki [5] [µM]	Ki [6] [µM]	% inhibition NDM-1 [2] [% at 100 μM]	% inhibition IMP-1 [4] [% at 100 μM]	% inhibition VIM-2 [5] [% at 100 μM]	% inhibition VIM-4 [7] [% at 100 μM]	% inhibition VIM-1 ([6]; at 100 μM (maximal tested concentration)) [% at 100 μM]
CN1CCN(CCOc2cccc(-c3n[nH]c(=S)n3CCc3ccccc3C(=O)O)c2)CC1 [Compound 63, o-[2-(3-{m-[2-(4-Methyl-1-piperazinyl)ethoxy]phenyl}-5-thioxo-1,4-dihydro-1,2,4-triazol-4-yl)ethyl]benzoic acid]	3	> 100	2	> 100	< 1	1 to 10					
Cn1cccc1-c1n[nH]c(=S)n1CCSCc1ccccc1 [Compound 64, 4-[2-(Benzylthio)ethyl]-5-(1-methyl-1H-pyrrol-2-yl)-2,4-dihydro-1,2,4-triazole-3-thione]	≥4		3		< 1	< 1	75	90			
O=C(O)C(CCCn1c(-c2ccccc2)n[nH]c1=S)NCc1cccc(O)c1O (centres unmarked) [Compound 67]	2	> 100	2	> 100					55	60	70
O=C1OC(Cn2c(-c3ccccc3)n[nH]c2=S)c2ccccc21 (centres unmarked) [Compound 37, 5-Phenyl-4-[(3-phthalideyl)methyl]-2,4-dihydro-1,2,4-triazole-3-thione]	3		3	> 100	> 100	< 1	50				
Fc1ccccc1CSCCn1c(-c2ccccc2)n[nH]c1=S [Compound 71, 4-[2-(2-Fluorobenzylsulfanyl)ethyl]-3-phenyl-4,5-dihydro-1H-1,2,4-triazole-5-thione]	3	10 to 100	≥4		< 1	< 1		97			
Cc1ccccc1-c1n[nH]c(=S)n1CCSCc1ccccc1 [Compound 80, 4-[2-(Benzylthio)ethyl]-5-(o-tolyl)-2,4-dihydro-1,2,4-triazole-3-thione]	3	10 to 100	2	10 to 100	< 1	< 1					
O=C(O)CCSCCn1c(-c2ccccc2)n[nH]c1=S [Compound 66, [2-(3-Phenyl-5-thioxo-1,4-dihydro-1,2,4-triazol-4-yl)ethylthio]propionic acid]	≥4		3		1 to 10	1 to 10	60	65			
Fc1ccc(CSCCn2c(-c3ccccc3)n[nH]c2=S)c(F)c1 [Compound 73, 4-[2-(2,4-Difluorobenzylsulfanyl)ethyl]-3-phenyl-4,5-dihydro-1H-1,2,4-triazole-5-thione]	≥4	10 to 100	3	1 to 10	< 1	1 to 10					
O=[N+]([O-])c1ccccc1CSCCn1c(-c2ccccc2)n[nH]c1=S [Compound 75, 4-[2-(2-Nitrobenzylsulfanyl)ethyl]-3-phenyl-4,5-dihydro-1H-1,2,4-triazole-5-thione]	≥4		3		< 1	< 1	69	72			
O=C(O)c1ccccc1CCn1c(-c2cccc(-c3ccccc3)c2)n[nH]c1=S [Compound 39, 5-(3-Biphenyl)-4-[2-(2-carboxyphenyl)ethyl]-1,2,4-triazole-3-thione]	≥4	> 100	3	> 100	< 1	1 to 10					
Fc1ccc(CSCCn2c(-c3ccccc3)n[nH]c2=S)cc1 [Compound 72, 4-[2-(4-Fluorobenzylsulfanyl)ethyl]-3-phenyl-4,5-dihydro-1H-1,2,4-triazole-5-thione]	3	1 to 10	1		< 1	1 to 10		96			
O=C(O)C(CCCn1c(-c2ccccc2)n[nH]c1=S)N(Cc1ccccc1)Cc1ccccc1 (centres unmarked) [Compound 68, 2-[Bis(phenylmethyl)amino]-5-(3-phenyl-5-sulfanylidene-4,5-dihydro-1H-1,2,4-triazol-4-yl)pentanoic acid]	2	> 100	2	> 100		> 100			65	65	
O=C(O)C(CSCCn1c(-c2cccc(-c3ccccc3)c2)n[nH]c1=S)c1ccccc1 (centres unmarked) [Compound 81, 3-{2-[3-(3-Biphenylyl)-5-thioxo-1,4-dihydro-1,2,4-triazol-4-yl]ethylthio}-hydratropic acid]	3		2		< 1	1 to 10	77	56			
O=C(O)C(CCCn1c(-c2ccccc2)n[nH]c1=S)N(Cc1c[nH]cn1)Cc1c[nH]cn1 (centres unmarked) [Compound 69, 2-[Bis(1H-imidazol-5-ylmethyl)amino]-5-(3-phenyl-5-sulfanylidene-4,5-dihydro-1H-1,2,4-triazol-4-yl)pentanoic acid]	≥4		≥4	> 100	< 1	< 1	85				
O=[N+]([O-])c1ccc(CSCCn2c(-c3ccccc3)n[nH]c2=S)cc1 [Compound 74, 4-[2-(4-Nitrobenzylsulfanyl)ethyl]-3-phenyl-4,5-dihydro-1H-1,2,4-triazole-5-thione]	≥4		3		1 to 10	< 1	95	92			
O=[N+]([O-])c1ccc(O)c(CSCCn2c(-c3ccccc3)n[nH]c2=S)c1 [Compound 76, 4-[2-(2-Hydroxy-5-Nitrobenzylsulfanyl)ethyl]-3-phenyl-4,5-dihydro-1H-1,2,4-triazole-5-thione]	2		≥4		< 1	< 1	77	62			
Oc1ccc(CCn2c(-c3cccc(-c4ccccc4)c3)n[nH]c2=S)c(O)c1 [Compound 42, 5-(3-Biphenyl)-4-[2-(2,4-dihydroxyphenyl)ethyl]-1,2,4-triazole-3-thione]	≥4	10 to 100	≥4	> 100	1 to 10	< 1					
S=c1[nH]nc(-c2ccccc2)n1CCSc1ccccc1 [Compound 70, 5-Phenyl-4-[2-(phenylthio)ethyl]-2,4-dihydro-1,2,4-triazole-3-thione]	≥4	10 to 100	≥4		1 to 10	1 to 10		84			
O=C(O)C(CSCCn1c(-c2ccccc2)n[nH]c1=S)c1ccccc1 (centres unmarked) [Compound 78, 2-Phenyl-3-[2-(3-phenyl-5-thioxo-1,4-dihydro-1,2,4-triazol-4-yl)ethylthio]-propionic acid]	2	1 to 10	3	10 to 100	< 1	< 1					
S=c1[nH]nc(-c2ccccc2)n1CCSCCc1ccccc1 [Compound 77, 4-[2-(2-Phenylethylsulfanyl)ethyl]-3-phenyl-4,5-dihydro-1H-1,2,4-triazole-5-thione]	≥4		3		1 to 10	< 1	92	89			
